One data set concerns HaCaT keratinocytes. In words: Proliferation of HaCaT keratinocytes (Cell Titer Viability Assay, luminescence). It is filed as cell-based. Particulars: 48 hours; for inhibition of proliferation of keratinocytes: comparable to negative control. As to the method: As further control cells were used, which were only incubated in KBM (KBM).
For this purpose 5×10^3 HaCaT keratinocytes were seeded into 60 wells of a 96 well-plate in 200 μl KBM/10% FCS each and incubated for 24 hours at 37° C. […] At the end of the second incubation period the medium was removed and the proliferation of cells was determined with the Cell Titer Viability Assay of Promega (#G7571/G7572) according to the manufacturer's instructions. A lowered luminescence with respect to the positive control (in RLU relative luminescence units) correlated with a lowered proliferation. Values obtained from the wells without cells were subtracted from the mean of the 6 wells with cells as background value. At least 4 independent experiments were carried out.

For data set [1] the following is noted: administration of up to 100 mg, therapy of lateral sclerosis; cited from earlier work.

In the case of `Nc1nc2ccc(OC(F)(F)F)cc2s1` [Riluzole, 2-amino-6-(trifluoromethoxy)-benzothiazole], the “inhibition of proliferation of keratinocytes” value in the data set with HaCaT keratinocytes (100 μmol/l Riluzole) and in the data set with HaCaT keratinocytes (250 μmol/l Riluzole) was “complete inhibition of proliferation” each time. For the same compound, the “concentration at which an inhibition of the proliferation was already observed” value with HaCaT keratinocytes (HaCaT keratinocytes, versus control KBM+10% FCS) was determined as 1 µmol/L. The adverse effect anestenia in data set [1] is recorded as 18 % of the treated patients. The adverse effect nausea in data set [1] is given as 16 % of all treated patients.

(Values after patent US20070190043A1 (Biofrontera AG, priority 2003, published 2007).)
